Columns and labels:
Assay type in all cases: cell-based
[1] = biological target: T1, human β2-adrenergic receptor (Homo sapiens, UniProt P07550); test: Test Case 3-B: human β2-adrenergic receptor agonist activity; details: read-out: β2 receptor I.A.
T1 construct: expressed in transfected cells; host or cells: CHO (Chinese hamster ovary) cells, pcDNA3
Protocol: Measurement of Human β2-Adrenergic Receptor Agonist Activity
The human β2-adrenergic receptor agonist activity is measured by the same method as in Test Case 1-B using CHO (Chinese hamster ovary) cells transfected by a human β2 gene inserted in pcDNA3 (Invitrogen).

[2] = biological target: T2, human β1-adrenergic receptor (Homo sapiens, UniProt P08588); test: Test Case 2-B: human β1-adrenergic receptor agonist activity; details: read-out: β1 receptor I.A.
T2 construct: expressed in transfected cells; host or cells: CHO (Chinese hamster ovary) cells, pcDNA3
T2 sequence (P08588 whole entry): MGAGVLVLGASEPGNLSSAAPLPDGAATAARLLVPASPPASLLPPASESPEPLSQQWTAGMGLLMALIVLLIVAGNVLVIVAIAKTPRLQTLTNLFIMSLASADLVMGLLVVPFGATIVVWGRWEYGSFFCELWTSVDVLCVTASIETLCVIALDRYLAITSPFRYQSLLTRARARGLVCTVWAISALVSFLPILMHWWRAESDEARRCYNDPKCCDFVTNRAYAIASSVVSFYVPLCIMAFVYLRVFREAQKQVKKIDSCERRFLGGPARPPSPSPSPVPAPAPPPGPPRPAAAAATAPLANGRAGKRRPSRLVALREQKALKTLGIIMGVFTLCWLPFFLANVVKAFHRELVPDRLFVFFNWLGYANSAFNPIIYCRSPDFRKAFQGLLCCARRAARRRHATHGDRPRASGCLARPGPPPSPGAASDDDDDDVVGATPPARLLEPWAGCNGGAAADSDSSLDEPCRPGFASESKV
Protocol: Measurement of Human β1-Adrenergic Receptor Agonist Activity
The human β1-adrenergic receptor agonist activity is measured by the same method as in Test Case 1-B using CHO (Chinese hamster ovary) cells transfected by a human β1 gene inserted in pcDNA3 (Invitrogen).

[3] = biological target: T3, human α1A-adrenergic receptor (Homo sapiens, UniProt P35348); test: Test Case 4-A: human α1A-adrenergic receptor agonist activity (HEK293, Ca flux, Fura-2); parameters: expressed in transfected cells; host or cells: HEK293 cells, pcDNA3.1; details: for Emax: HEK293, read-out: α1A receptor I.A.; for α1A receptor I.A. / EC50: Test Case 4-A, Table 4; for α1A receptor I.A.: maximum response of norepinephrine = 100%; for EC50: HEK293 cells, Ca flux
T3 sequence (P35348 1-466): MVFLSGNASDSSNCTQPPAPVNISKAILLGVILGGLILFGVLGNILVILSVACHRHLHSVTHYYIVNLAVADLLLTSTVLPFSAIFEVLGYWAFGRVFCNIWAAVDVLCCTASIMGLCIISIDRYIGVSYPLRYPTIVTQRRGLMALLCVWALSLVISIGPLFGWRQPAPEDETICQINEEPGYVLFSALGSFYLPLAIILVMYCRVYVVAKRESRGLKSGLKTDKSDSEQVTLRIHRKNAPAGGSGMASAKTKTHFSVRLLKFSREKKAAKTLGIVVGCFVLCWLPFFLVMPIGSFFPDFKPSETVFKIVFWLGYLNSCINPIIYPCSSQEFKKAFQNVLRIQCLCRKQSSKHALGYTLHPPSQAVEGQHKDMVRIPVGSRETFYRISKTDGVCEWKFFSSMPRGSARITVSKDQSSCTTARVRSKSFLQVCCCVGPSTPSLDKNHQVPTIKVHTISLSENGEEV
Protocol: (§1) Measurement of Human α1A-Adrenergic Receptor Agonist Activity
The human α1A-adrenergic receptor agonist activity is measured using HEK293 cells transfected by a human α1A gene inserted in pcDNA3.1 (Invitrogen). […] After loading for 30 minutes in a CO2 incubator, the excess Fura-2AM is removed by washing twice with assay buffer. After preparing the centrifuged cells to make 5×10^6 cells/mL by assay buffer, 80 μL/well is dispensed into 96-well UV plates (made by Corning) to make cell plates. Sample plates with the test compound diluted 10-fold by assay buffer from 10^−5 to 10^−12 M and cell plates are set in an FDSS4000 (made by Hamamatsu Photonics). After preincubating for 180 seconds, measurement of fluorescence intensity (excitation wavelength 340 nm, 380 nm, measurement wavelength 500 nm) is begun at 2-second intervals. After approximately 30 seconds of measurement, 20 μL of test sample from a sample plate is added to the cell plate, and measurement is continued for another 270 seconds. The Ca flux caused by the test compound is calculated taking the difference in the maximum value of the fluorescence intensity ratio at 340 nm and 380 nm after adding the test compound and the fluorescence intensity ratio before adding the test compound as the peak height.

[4] = biological target: T4, human β3-adrenergic receptor (Homo sapiens, UniProt P13945); test: Test Case 1-B: human β3-adrenergic receptor agonist activity (cAMP-Screen, 96-well); details: for Emax: 0.5 h, read-out: β3 receptor I.A.; for EC50: CHO cells, cAMP
T4 construct: A full-length human β3 gene is obtained from a human genomic library (made by Clontech) using this as the probe; expressed in transfected cells; host or cells: CHO (Chinese hamster ovary) cells, pcDNA3
T4 sequence (P13945 whole entry): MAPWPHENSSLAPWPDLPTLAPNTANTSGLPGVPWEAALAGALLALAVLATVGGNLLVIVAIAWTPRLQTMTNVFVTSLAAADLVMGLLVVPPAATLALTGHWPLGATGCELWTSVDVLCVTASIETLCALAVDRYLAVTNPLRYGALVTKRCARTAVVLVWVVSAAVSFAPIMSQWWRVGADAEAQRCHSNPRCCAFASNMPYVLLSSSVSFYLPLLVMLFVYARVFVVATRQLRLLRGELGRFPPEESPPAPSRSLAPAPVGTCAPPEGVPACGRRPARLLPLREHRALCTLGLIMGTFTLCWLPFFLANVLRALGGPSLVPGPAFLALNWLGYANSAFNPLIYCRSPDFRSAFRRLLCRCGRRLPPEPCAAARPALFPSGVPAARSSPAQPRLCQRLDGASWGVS
Protocol: Measurement of Human β3-Adrenergic Receptor Agonist Activity
The human β3-adrenergic receptor agonist activity is measured using CHO (Chinese hamster ovary) cells transfected by a human β3 gene inserted in pcDNA3 (Invitrogen). […] A full-length human β3 gene is obtained from a human genomic library (made by Clontech) using this as the probe. These cells are cultured in Ham's F-12 medium containing 10% fetal calf serum and 400 μg/mL genectin (Invitrogen). These cells are sown in 96-well plates to make 2×10^4 cells/well. After culturing for approximately 20 hours, they are allowed to stand for 15 minutes in 80 μL of serum-free Ham's F-12 medium. After first dissolving the test compound by DMSO, it is serially diluted by Ham's F-12 containing 100 mmol/L HEPES and 1 mmol/L isobutylmethylxanthine, and 20 μL is added to the cells. After culturing for 30 minutes, the medium is removed, and 0.1 mL of the assay/lysis buffer contained in the cAMP-Screen kit (made by Applied Bioscience) is added and incubated for 30 minutes at 37° C. The cAMP in this cell lysate is assayed by the above cAMP-Screen kit.

[5] = biological target: T3, human α1A-adrenergic receptor; test: Test Case 4-B: human α1A-adrenergic receptor agonist activity (Cerep cellular functional GPCR, alpha 1A); parameters: expressed in transfected cells; details: concentration 10 μM; for α1 receptor % of Control Agonist Response, Control; Epinephrine: epinephrine = 100%
Text: as §1
The human α1A-adrenergic receptor agonist activity] can be measured by […] Functional GPCR·Gs, alpha 1A (Ref. 722-36a) listed on p. 52 of the Cerep 2008 CATALOG IN VITRO PHARMACOLOGY & ADME-TOX.

T1 sequence (P07550 whole entry): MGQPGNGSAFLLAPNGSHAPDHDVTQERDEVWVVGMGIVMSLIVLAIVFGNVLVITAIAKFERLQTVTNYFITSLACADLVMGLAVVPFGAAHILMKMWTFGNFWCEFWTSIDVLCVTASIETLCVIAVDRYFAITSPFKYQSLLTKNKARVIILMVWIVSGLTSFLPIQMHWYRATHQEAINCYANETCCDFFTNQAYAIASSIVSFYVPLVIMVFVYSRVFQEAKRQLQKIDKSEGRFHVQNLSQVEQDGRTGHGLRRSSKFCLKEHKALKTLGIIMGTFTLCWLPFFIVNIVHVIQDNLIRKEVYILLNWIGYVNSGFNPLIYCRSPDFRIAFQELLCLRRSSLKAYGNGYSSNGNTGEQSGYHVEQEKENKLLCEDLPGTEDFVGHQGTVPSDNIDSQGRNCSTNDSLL

Molecule | Emax [1] | Emax [2] | Emax [3] | Emax [4] | EC50 ([4]; Test Case 1-B) | α1 receptor % of Control Agonist Response, Control; Epinephrine [5] | α1 receptor % of Control Agonist Response, Control; Norepinephrine ([5]; norepinephrine = 100%) | α1A receptor I.A. [3] | EC50 [3] | β3 receptor I.A. ([4]; Test Case 1-B, maximum response of isoproterenol = 100%)
COc1n[nH]c2cc(OCCNC[C@H](O)c3cccc(NS(=O)(=O)c4cccc(Cl)c4)c3)ccc12 [ex13, (R)-3-chloro-N-(3-(1-hydroxy-2-(2-( ? - methoxyindazol-6-yloxy)ethylamino)ethyl)phenyl) benzenesulfonamide] | -4% | 4% | 0% | 82% | 9.4 nM |  |  |  |  | 
Nc1cccc(S(=O)(=O)Nc2cccc([C@@H](O)CNCCOc3ccc4c(Cl)n[nH]c4c3)c2)c1 [ex153, (R)- ? -amino-N-(3-(2-(2-(3-chloroindazol-6-yloxy)-ethylamino)-1-hydroxyethyl)-phenyl) benzenesulfonamide] | 13% | 12% | 0% | 95% | 0.22 nM |  |  |  |  | 
Cc1cccc(S(=O)(=O)Nc2cccc([C@@H](O)CNCCOc3ccc4c(C)n[nH]c4c3)c2)c1 [ex49, (R)-N-(3-(1-hydroxy-2-(2-(3-methylindazol-6-yloxy)ethylamino)ethyl)phenyl)-3-methyl] | -3% | 10% | 0% | 96% | 2.5 nM |  |  |  |  | 
COc1n[nH]c2cc(OCCNC[C@H](O)c3cccc(NS(=O)(=O)c4cccnc4)c3)ccc12 [ex12, (R)-N-(3-(1-hydroxy-2-(2-(3-methoxyindazol-6-yloxy)ethylamino)ethyl)phenyl)pyridine-3-sulfonamide] | 5% | 5% | 0% | 52% | 31 nM |  |  |  |  | 
CCc1n[nH]c2cc(OCCNC[C@H](O)c3cccc(NS(=O)(=O)c4cccc(N)c4)c3)ccc12 [ex118, (R)-3-amino-N-(3-(2-(2-(3-ethylindazol-6-yloxy)-ethylamino)-1-hydroxyethyl)-phenyl) benzenesulfonamide] | -1% | 13% | 0% | 77% | 0.25 nM |  |  |  |  | 
NC[C@H](O)c1ccc(O)c(O)c1 [Norepinephrine, reference compound] |  |  | 100% |  |  | 116% | 100% | 100% |  | 
COc1n[nH]c2cc(OCCNC[C@H](O)c3cccc(NS(=O)(=O)C4CC4)c3)ccc12 [ex17, (R)-N-( ? -(1-hydroxy-2-(2-(3-methoxyindazol-6-yloxy)ethylamino)ethyl)phenyl)cy ?] | 12% | 1% | 13% | 70% | 39 nM |  |  |  |  | 
CNC[C@H](O)c1ccc(O)c(O)c1 [Epinephrine, epinephrine, reference compound] |  |  |  |  |  | 100% |  |  |  | 
O=S(=O)(Nc1cccc([C@@H](O)CNCCOc2ccc3c(C(F)(F)F)n[nH]c3c2)c1)C1CCC1 [ex210, (R)-N-(3-(1-hydroxy-2-(2-(3-(trifluoro-methyl)-indazol-6-yloxy)ethylamino)ethyl)phenyl)cyclo-clobutanesulfonamide] |  |  | 54% | 86% | 17 nM |  |  |  | 1700 nM | 
Cc1n[nH]c2cc(OCCNC[C@H](O)c3cccc(NS(=O)(=O)c4ccccc4Cl)c3)ccc12 [ex51, (R)-2-chloro-N-(3-(1-hydroxy-2-(2-(3-methylindazol-6-yloxy)ethylamino)ethyl)phenyl)ben-zenesulfonamide] |  |  | 0% | 64% | 146 nM |  |  |  |  | 
O=S(=O)(Nc1cccc([C@@H](O)CNCCOc2ccc3c(OC(F)F)n[nH]c3c2)c1)C1CCC1 [ex115, (R)-N-(3-(2-(2-(3-(difluoromethoxy)-indazol-6-yloxy)ethylamino)-1-hydroxyethyl)phenyl)-cyclobutanesul-fonamide] |  |  | 35% | 86% | 15 nM |  |  |  | 1100 nM | 
Cn1cc(S(=O)(=O)Nc2cccc([C@@H](O)CNCCOc3ccc4c(C5CC5)n[nH]c4c3)c2)cn1 [ex225, (R)-N-(3-(2-(2-(3-cyclopropylindazol-6-yloxy)ethylamino)-1-hydroxyethyl)phenyl)-1-methyl-pyrazole-4-sul-fonamide] |  |  | 41% | 91% | 5.7 nM |  |  |  | 981 nM | 
CCc1n[nH]c2cc(OCCNC[C@H](O)c3cccc(NS(=O)(=O)c4cccs4)c3)ccc12 [ex122, (R)-N-(3-(2-(2-(3-ethylindazol-6-yloxy)ethylamino)-1-hydroxyethyl)phenyl) thiophene-2-sulfonamide] |  |  | 0% | 59% | 0.91 nM |  |  |  |  | 
Cc1n[nH]c2cc(OCCNC[C@H](O)c3cccc(NS(=O)(=O)c4ccc(N)cc4)c3)ccc12 [ex54, (R)-4-amino-N-(3-(1-hydroxy-2-(2-(3-methylindazol-6-yloxy)ethylamino)ethyl)phenyl) benzenesulfonamide] |  |  | 0% | 48% | 125 nM |  |  |  |  | 
(R)-N-(3-(1-hydroxy- 2-(2-(3-iso- propylindazol-6-yloxy) ethylamino)ethyl) phenyl)cyclopro- panesulfonamide [ex228] |  |  |  |  | 14 nM |  |  | 0% |  | 47%
CCc1n[nH]c2cc(OCCNC[C@H](O)c3cccc(NS(=O)(=O)c4ccsc4)c3)ccc12 [ex123, (R)-N-(3-(2-(2-(3-ethylindazol-6-yloxy)ethylamino)-1-hydroxyethyl)phenyl) thiophene-3-sulfonamide] |  |  | 0% | 50% | 0.67 nM |  |  |  |  | 
Cc1n[nH]c2cc(OCCNC[C@H](O)c3cccc(NS(=O)(=O)c4cn(C)cn4)c3)ccc12 [ex50, (R)-N-(3-(1-hydroxy-2-(2-(3-methylindazol-6-yloxy)ethylamino)ethyl)phenyl)-1-methylimidazole-4-sulfonamide] |  |  | 0% | 18% |  |  |  |  |  | 
Cc1n[nH]c2cc(OCCNC[C@H](O)c3cccc(NS(=O)(=O)CC(F)(F)F)c3)ccc12 [ex48, (R)-2,2,2-trifluoro-N-(3-(1-hydroxy-2-(2-(3-methylindazol-6-yloxy)ethylamino)ethyl)phenyl) ? sulfonamide] |  |  | 29% | 48% | 27 nM |  |  |  |  | 

— US20120225909A1, “INDAZOLE ANALOG” (priority 2009, published 2012)
